This passage reports IC50 results from BindingDB's records for doi:10.7270/Q2HT2MVZ (Burnham Center For Chemical Genomics, 2011).

Some results are limits rather than exact numbers.

In this experiment the target is T1, Sentrin-specific protease 8 (Homo sapiens, UniProt Q96LD8).
T1 sequence (Q96LD8 whole entry): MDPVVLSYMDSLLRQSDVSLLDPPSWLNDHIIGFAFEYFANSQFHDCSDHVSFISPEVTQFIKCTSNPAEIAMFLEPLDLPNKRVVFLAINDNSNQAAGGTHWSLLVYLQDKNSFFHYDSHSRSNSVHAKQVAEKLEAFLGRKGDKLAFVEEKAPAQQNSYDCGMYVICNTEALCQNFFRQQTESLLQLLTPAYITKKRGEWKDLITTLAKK
Nature of the experiment: inhibition of sentrin protease 8 – biochemical, luminescence, set 2, SAR follow-up (AID 588601).

For the compound `CCOC1=CC(=CC(C#N)c2nc(-c3ccc(C)cc3)no2)C=C(Cl)C1=O` (stereo unspecified), the IC50 was > 99 µM.

For orientation: IC50 means the concentration at which inhibition is half-maximal. A low value points to greater potency in that assay.
